Measured values from patent US6642392B1 (priority 1997, dated 2003).
Read-outs that look alike come from different tables or passages of the source.

How the values were obtained:
Type in all cases: in vivo
Phytophthora infestans = conditions: tomato late blight
Pyricularia oryzae = conditions: rice blast
Puccinia recondita = experiment: Test B: wheat leaf rust, preventive spray on wheat seedlings; conditions: wheat leaf rust
Method: (§1) The resulting test suspensions were then used in the following tests. […]
(§2) The test suspension was sprayed to the point of run-off on wheat seedlings. The following day the seedlings were inoculated with a spore suspension of Puccinia recondita (the causal agent of wheat leaf rust) and incubated in a saturated atmosphere at 20° C. for 24 h, and then moved to a growth chamber at 20° C. for 6 days, after which disease ratings were made.
(§3) Results for Tests A-E are given in Table A. In the table, a rating of 100 indicates 100% disease control and a rating of 0 indicates no disease control (relative to the controls). A dash (-) indicates no test results. ND indicates disease control not determined due to phytotoxicity.

Botrytis cinerea = experiment: Test E: gray mold, preventive spray on cucumber seedlings; conditions: gray mold on cucumber
Method: The resulting test suspensions were then used in the following tests. Spraying these 200 ppm test suspensions to the point of run-off on the test plants is the equivalent of a rate of 500 g/ha.
as §2, with “cucumber” for “wheat”, “Botrytis cinerea” for “Puccinia recondita”, “gray mold on many crops)” for “wheat leaf rust)”, “48” for “24”, “and” for “and then”, “5” for “6”
as §3

[1] = system: Eiysiphe graminis f. sp. tritici; experiment: Test A: wheat powdery mildew, preventive spray on wheat seedlings; conditions: wheat powdery mildew
Method: as §1
The test suspension was sprayed to the point of run-off on wheat seedlings. The following day the seedlings were inoculated with a spore dust of Eiysiphe graminis f. sp. tritici, (the causal agent of wheat powdery mildew) and incubated in a growth chamber at 20° C. for 7 days, after which disease ratings were made.
as §3

[2] = 100 = 100% disease control, 0 = no control, unmarked entries (standard test concentration)
[3] = 100 = 100% disease control, 0 = no control relative to controls, unmarked entries (standard test concentration)

Row | SMILES | Test D disease control rating (Phytophthora infestans; [2]) [%] | Test C disease control rating (Pyricularia oryzae; [2]) [%] | Test B disease control rating (Puccinia recondita; [2]) [%] | Test E disease control rating (Botrytis cinerea; [2]) [%] | Test A disease control rating [1, 3] [%] | also measured
1 | CC(COc1ccccc1Cl)NC(=O)C(C#N)C(C)(C)C (mixture of isomers) [5b] | 24 | 100 | 86 | 0 | 0 | –
2 | CC(COc1cccc(Cl)c1)NC(=O)C(C#N)C(C)(C)C (mixture of isomers) [6b] | 4 | 53 | 68 | 0 | 38 | –
3 | CC(COc1ccccc1Br)NC(=O)C(C#N)C(C)(C)C (mixture of isomers) [8a] | 0 | 85 | 0 | 7 | 0 | –
4 | CC(COc1cccc(Br)c1)NC(=O)C(C#N)C(C)(C)C (mixture of isomers) [9a] | 0 | 53 | 0 | 0 | 0 | –
5 | CC(COc1ccccc1I)NC(=O)C(C#N)C(C)(C)C (mixture of isomers) [11a] | 0 | 97 | 0 | 82 | 77 | –
6 | CC(COc1ccccc1I)NC(=O)C(C#N)C(C)(C)C (mixture of isomers) [11b] | 23 | 99 | 85 | 0 | 77 | –
7 | CC(COc1ccccc1C#N)NC(=O)C(C#N)C(C)(C)C (mixture of isomers) [13a] | 0 | 51 | 0 | 0 | 34 | –
8 | CC(COc1ccccc1C(F)(F)F)NC(=O)C(C#N)C(C)(C)C (mixture of isomers) [17a] | 16 | 30 | 67 | 0 | 85 | –
9 | CC(COc1ccccc1C(F)(F)F)NC(=O)C(C#N)C(C)(C)C (mixture of isomers) [17b] | 0 | 100 | 28 | 0 | 38 | –
10 | CCc1ccccc1OCC(C)NC(=O)C(C#N)C(C)(C)C (mixture of isomers) [20a] | 70 | 97 | 0 | 0 | 63 | –
11 | CCc1ccccc1OCC(C)NC(=O)C(C#N)C(C)(C)C (mixture of isomers) [20b] | 0 | 100 | 0 | 0 | 0 | –
12 | CCCc1ccccc1OCC(C)NC(=O)C(C#N)C(C)(C)C (mixture of isomers) [21a] | 4 | 99 | 68 | 0 | 38 | –
13 | C=CCc1ccccc1OCC(C)NC(=O)C(C#N)C(C)(C)C (mixture of isomers) [25a] | 0 | 32 | 28 | 0 | 95 | –
14 | C=CCc1ccccc1OCC(C)NC(=O)C(C#N)C(C)(C)C (mixture of isomers) [25b] | 24 | 97 | 0 | 0 | 63 | –
15 | CC(COc1c(F)cccc1F)NC(=O)C(C#N)C(C)(C)C (mixture of isomers) [29a] | 35 | 74 | 0 | 6 | 0 | –
16 | CC(COc1c(F)cccc1F)NC(=O)C(C#N)C(C)(C)C (mixture of isomers) [29b] | 23 | 100 | 0 | 0 | 0 | –
17 | Cc1c(Cl)cc(C#N)n1OCC(C)NC(=O)C(C#N)C(C)C(C)(C)C (mixture of isomers) [71a] | 19 | 53 | 0 | 0 | 0 | –
18 | Cc1c(Cl)cc(C#N)n1OCC(C)NC(=O)C(C#N)C(C)C(C)(C)C (mixture of isomers) [71b] | – | – | – | – | – | Test D disease control rating (Phytophthora infestans; tested at 100 ppm): 19%; Test C disease control rating (Pyricularia oryzae; tested at 100 ppm): 0%; Test B disease control rating (Puccinia recondita; tested at 100 ppm): 0%; Test E disease control rating (Botrytis cinerea; tested at 100 ppm): 0%; Test A disease control rating ([1]; tested at 100 ppm): 0%
19 | CCC1(C(=O)NC(C)COc2ccccc2)C(C)C1(Cl)Cl (mixture of isomers) [77b] | – | – | – | – | – | Test D disease control rating (Phytophthora infestans; tested at 40 ppm): 0%; Test C disease control rating (Pyricularia oryzae; tested at 40 ppm): 74%; Test B disease control rating (Puccinia recondita; tested at 40 ppm): 0%; Test E disease control rating (Botrytis cinerea; tested at 40 ppm): 0%; Test A disease control rating ([1]; tested at 40 ppm): 33%
20 | CCC1(C(=O)NC(C)COc2ccccc2F)C(C)C1(Cl)Cl (mixture of isomers) [78a] | 0 | 90 | 93 | 74 | 0 | –
21 | CCC1(C(=O)NC(C)COc2cccc(F)c2)C(C)C1(Cl)Cl (mixture of isomers) [79a] | – | – | – | – | – | Test D disease control rating (Phytophthora infestans; tested at 40 ppm): 0%; Test C disease control rating (Pyricularia oryzae; tested at 40 ppm): 53%; Test B disease control rating (Puccinia recondita; tested at 40 ppm): 0%; Test E disease control rating (Botrytis cinerea; tested at 40 ppm): 0%; Test A disease control rating ([1]; tested at 40 ppm): 0%
22 | CCC1(C(=O)NC(C)COc2cccc(F)c2)C(C)C1(Cl)Cl (mixture of isomers) [79b] | – | – | – | – | – | Test D disease control rating (Phytophthora infestans; tested at 40 ppm): 0%; Test C disease control rating (Pyricularia oryzae; tested at 40 ppm): 100%; Test B disease control rating (Puccinia recondita; tested at 40 ppm): 0%; Test E disease control rating (Botrytis cinerea; tested at 40 ppm): 0%; Test A disease control rating ([1]; tested at 40 ppm): 0%
23 | CCC1(C(=O)NC(C)COc2ccc(F)cc2)C(C)C1(Cl)Cl (mixture of isomers) [80a] | – | – | – | – | – | Test D disease control rating (Phytophthora infestans; tested at 40 ppm): 20%; Test C disease control rating (Pyricularia oryzae; tested at 40 ppm): 86%; Test B disease control rating (Puccinia recondita; tested at 40 ppm): 0%; Test E disease control rating (Botrytis cinerea; tested at 40 ppm): 0%; Test A disease control rating ([1]; tested at 40 ppm): 0%
24 | CCC1(C(=O)NC(C)COc2ccc(F)cc2)C(C)C1(Cl)Cl (mixture of isomers) [80b] | – | – | – | – | – | Test D disease control rating (Phytophthora infestans; tested at 40 ppm): 0%; Test C disease control rating (Pyricularia oryzae; tested at 40 ppm): 97%; Test B disease control rating (Puccinia recondita; tested at 40 ppm): 0%; Test E disease control rating (Botrytis cinerea; tested at 40 ppm): 0%; Test A disease control rating ([1]; tested at 40 ppm): 83%
25 | CCC1(C(=O)NC(C)COc2ccccc2Cl)C(C)C1(Cl)Cl (mixture of isomers) [81a] | 0 | 0 | 0 | 55 | 0 | –
26 | CCC1(C(=O)NC(C)COc2ccccc2Cl)C(C)C1(Cl)Cl (mixture of isomers) [81b] | – | – | – | – | – | Test D disease control rating (Phytophthora infestans; tested at 40 ppm): 0%; Test C disease control rating (Pyricularia oryzae; tested at 40 ppm): 74%; Test B disease control rating (Puccinia recondita; tested at 40 ppm): 0%; Test E disease control rating (Botrytis cinerea; tested at 40 ppm): 0%; Test A disease control rating ([1]; tested at 40 ppm): 85%
27 | CCC1(C(=O)NC(C)COc2cccc(Cl)c2)C(C)C1(Cl)Cl (mixture of isomers) [82a] | – | – | – | – | – | Test D disease control rating (Phytophthora infestans; tested at 40 ppm): 43%; Test C disease control rating (Pyricularia oryzae; tested at 40 ppm): 53%; Test B disease control rating (Puccinia recondita; tested at 40 ppm): 0%; Test E disease control rating (Botrytis cinerea; tested at 40 ppm): 0%; Test A disease control rating ([1]; tested at 40 ppm): 0%
28 | CCC1(C(=O)NC(C)COc2cccc(Cl)c2)C(C)C1(Cl)Cl (mixture of isomers) [82b] | 15 | 97 | 0 | 0 | 31 | –
29 | CCC1(C(=O)NC(C)COc2ccc(Cl)cc2)C(C)C1(Cl)Cl (mixture of isomers) [83a] | – | – | – | – | – | Test D disease control rating (Phytophthora infestans; tested at 40 ppm): 0%; Test C disease control rating (Pyricularia oryzae; tested at 40 ppm): 32%; Test B disease control rating (Puccinia recondita; tested at 40 ppm): 0%; Test E disease control rating (Botrytis cinerea; tested at 40 ppm): 0%; Test A disease control rating ([1]; tested at 40 ppm): 0%
